Test results published in patent US9072774B2, “Porphyrin nanovesicles” (UNIVERSITY HEALTH NETWORK, priority 2009, dated 2015).

Experiment: Differential scanning calorimetry
Type: physicochemical
Conditions: 5 mg/ml in PBS, scan rate 1° C./min
Procedure: Samples were placed in a vacuum for 30 min prior to measurement. A scan rate of 1° C./min was used for all samples. PBS was used as the reference and one scan cycle of PBS was used as the baseline. For each lipid, three cooling and heating scans were performed and the results averaged to determine the phase transition temperature of the lipids.

transition temperature: 24 °C
Compound: CCCCCCCCCCCCCC(=O)OC[C@H](COP(=O)([O-])OCC[N+](C)(C)C)OC(=O)CCCCCCCCCCCCC [DMPC]
